The text below walks through data of patent US20240252410A1, “COMPOUNDS FOR USE IN KERATIN TREATMENT” (CrossChem Limited, priority 2023, published 2024).

Assay [1] in a line: Hair tensile strength test (digital force gauge). To be noted: for % Increase in tensile strength relative to control: control 100% DI water. As for the experimental part: (§1) Hair tensile strength can be measured according to the following general method. “Test Compound” can be any compound described herein. • 1. Collect about 3 hair strands from tress; • 2. Clamp both ends of a single hair strand and pull taut; • 3. Line up ruler with hair strand and cut a 2.75 cm section; • 4. Repeat steps 2-3 until 30 segments are produced; • 5. Create a specific w/w % solution of deionized water and Test Compound (e.g., Compound (1)) in 50 ml beaker; • 6. Saturate the hair for a specific amount of time in the solution, then remove and dry for 30 minutes; • 7. Using a 4 decimal precision balance, weigh all hairs at once and calculate the average; • 8. Insert hair into the digital force gauge; • 9. Separate the two clamps until the hair has broken into two separate pieces; and • 10. Note the maximum force required to break the hair as well as the distance the digital force gauge has moved.
(§2) Control experiments can also be conducted according to the procedure described above, for example by omitting Test Compound from the solution or replacing Test Compound with compound for comparison (e.g., glycolic acid).

A short description of assay [2]: Hair elongation percentage test. To be noted: for % Increase in elongation percentage relative to control: control 100% DI water. As for the experimental part:
as §1, §2

Assay [3] is described as follows: Elongation of bleached hair at break stress (Formulation 1). The conditions noted are these: 5 w/w % solution in DI water. The protocol: A combination formulation (Formulation 1) comprising Compound (1) and glycolic acid as an aqueous mixture was tested. Formulation 1 comprises a 1:1 ratio (by weight) of Compound (1) to glycolic acid. To prepare Formulation 1, a mixture containing 50 w/w % Compound (1) and 50 w/w % glycolic acid (crystalline) was prepared (Mixture A). Mixture A was diluted with deionized (DI) water (aqua) until the solution was 5 w/wt % Mixture A.
Formulation 1 was independently analyzed to determine whether elongation of bleached hair at break stress increased compared to both control and glycolic acid solutions. The glycolic acid solution was a 5 w/w % glycolic acid solution in DI water. The control was DI water alone.

Where [4] appears, read: 1 w/w % solution in deionized water.
Setting [5] is: 2.5 w/w % solution in deionized water.

As to `N[C@@H](CO)C(=O)OCC(=O)O` [Compound (1)], the “Tensile strength (Gf/Denier)” value in assay [1] (setting [4]) is given as 1.210 gf/denier; in assay [1] (setting [5]), 1.490 gf/denier. Besides, the “% Increase in tensile strength relative to control” value in assay [1] (1 w/w % solution) amounted to 16.9%; in assay [1] (2.5 w/w % solution), 43.9%. Besides, the “Tensile strength of hair compared to glycolic acid (in words)” value in assay [1] (2.5 w/w % solution vs 2.5 w/w % glycolic acid, FIG. 2) is reported as “significantly increases tensile strength of hair as compared to glycolic acid”. For the same molecule, the “Tensile strength of hair relative to control (in words)” value in assay [1] (control hair treated 100% DI water, FIG. 1) is listed as “significantly increases tensile strength of hair, relative to control”. The Elongation % worked out at 25.4% in assay [2] (setting [4]) and 29.9% in assay [2] (setting [5]). Moreover, the “% Increase in elongation percentage relative to control” value in assay [2] (1 w/w % solution) is listed as 0.67%; in assay [2] (2.5 w/w % solution) it was 18.51%. For the same molecule, the “Elongation percentage of hair compared to glycolic acid (in words)” value in assay [2] (2.5 w/w % solution vs 2.5 w/w % glycolic acid, FIG. 4) is reported as “significantly increases elongation percentage of hair”. The “Elongation percentage of hair relative to control (in words)” value in assay [2] (control hair treated 100% DI water, FIG. 3) was “increases elongation percentage of hair”.

On to `O=C(O)CO` [Glycolic Acid, glycolic acid, reference compound], for which, in assay [1] (setting [5]), the “Tensile strength (Gf/Denier)” value came out at 1.219 gf/denier. For the same molecule, the “% Increase in tensile strength relative to control” value in assay [1] (2.5 w/w % solution) stood at 17.8%. Moreover, the Elongation % in assay [2] (setting [5]) is 26.71%. For the same molecule, the “% Increase in elongation percentage relative to control” value in assay [2] (2.5 w/w % solution) is 5.87%. The “Mean Elongation %” value in assay [3] is 55.3%. Also, the “Difference from Control (%)” value in assay [3] (control DI water) amounted to 7.38%.
